Results on 1 cell line are retold here after the supplement of paper PMC10307832.

Holding throughout (assay): relative viability (nuclei count vs DMSO), 5 days (fraction); higher = more cells survive
Compound in experiment [1]: C#Cc1cccc(Nc2ncnc3cc(OCCOC)c(OCCOC)cc23)c1 [Erlotinib] + CCNC(=O)c1noc(-c2cc(C(C)C)c(O)cc2O)c1-c1ccc(CN2CCOCC2)cc1 [Luminespib] (partner 0.01 µM)
In outline:
(§1)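 For relative viability, nuclei counts in treated wells were divided by those in vehicle wells. Lung cancer cell lines had been pin-tool dosed in 1536-well plates the day after seeding and cultured for 5 days, then fixed and stained in one step (final 0.05% Triton X-100, 1% formaldehyde, 1 ug/ml Hoechst) and imaged at 4×. Doses were one drug alone or a fixed anchor-drug dose plus five library-drug doses (not always all listed) in √10 steps, and values are duplicate-plate medians.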

Compound in experiment [2]: C#Cc1cccc(Nc2ncnc3cc(OCCOC)c(OCCOC)cc23)c1 [Erlotinib] + Cc1nc(NC(=O)N2CCC[C@H]2C(N)=O)sc1-c1ccnc(C(C)(C)C(F)(F)F)c1 [Alpelisib] (partner 2 µM)
The essentials: as §1

Compound in experiment [3]: O=C(Nc1c[nH]nc1-c1nc2ccc(CN3CCOCC3)cc2[nH]1)NC1CC1 [AT9283] + CC1(C)CCC(c2ccc(Cl)cc2)=C(CN2CCN(c3ccc(C(=O)NS(=O)(=O)c4ccc(N[C@H](CCN5CCOCC5)CSc5ccccc5)c(S(=O)(=O)C(F)(F)F)c4)cc3)CC2)C1 [Navitoclax] (partner 0.5 µM)
In outline: as §1

Compound in experiment [4]: O=C(Nc1c[nH]nc1-c1nc2ccc(CN3CCOCC3)cc2[nH]1)NC1CC1 [AT9283] + C[C@]1(O)C[C@@H](c2nc(-c3ccc4ccc(-c5ccccc5)nc4c3)c3c(N)nccn32)C1 [Linsitinib] (partner 1 µM)
In outline: as §1

Compound in experiment [5]: O=C(Nc1c[nH]nc1-c1nc2ccc(CN3CCOCC3)cc2[nH]1)NC1CC1 [AT9283] + O=C(c1cc(Cc2n[nH]c(=O)c3ccccc23)ccc1F)N1CCN(C(=O)C2CC2)CC1 [Olaparib] (partner 8 µM)
In outline: as §1

Turning to NCI-H441, the relative viability in experiment [1] (first compound 0.02 µM) turned out to be 0.259; in experiment [1] (first compound 0.2 µM), 0.32; in experiment [1] (first compound 0.6325 µM), 0.345; in experiment [1] (first compound 2 µM), 0.345; in experiment [2] (first compound 0.02 µM), 0.688; in experiment [2] (first compound 0.2 µM) it was 0.655. In addition, the relative viability in experiment [2] (first compound 0.6325 µM) amounted to 0.743; in experiment [2] (first compound 2 µM), 0.466; in experiment [3] (first compound 0.003 µM), 0.432; in experiment [3] (first compound 0.03 µM), 0.433; in experiment [3] (first compound 0.09487 µM) it was 0.255; in experiment [3] (first compound 0.3 µM), 0.204. The relative viability came to 0.535 in experiment [4] (first compound 0.003 µM); 0.474 in experiment [4] (first compound 0.03 µM); 0.142 in experiment [4] (first compound 0.09487 µM); 0.165 in experiment [4] (first compound 0.3 µM); 0.557 in experiment [5] (first compound 0.003 µM); 0.504 in experiment [5] (first compound 0.03 µM). In addition, the relative viability was determined as 0.417 in experiment [5] (first compound 0.09487 µM) and 0.319 in experiment [5] (first compound 0.3 µM).
